Test results as given in US10292945B2, “Dressings that contain active substance” (BEIERSDORF AG, priority 2011, dated 2019).

Assay: Active substance release from acrylate adhesive matrix into pig skin by Franz's cells, HPLC determination
Assay type: in vitro ADME
Description: The release of the active ingredients within the product is advantageously adjusted such that an effect can still be perceived even after a period of 2 days. The delayed effect of the active substances used is achieved here from combination of active substance content and auxiliaries. The release of the active substances can be controlled over a wide time range via the use of e.g. plasticizers and fillers. Examples of such systems are pain patches on the market that contain opiates such as fentanyl, which are applied over several days up to a week and ensure an absolutely uniform release of the active substance over the entire application time. For the determination of the release rate of vanillyl butyl ether (VBE) from e.g. acrylate compositions, it was incorporated into the adhesive compositions in an amount of 0.75% and the release was ascertained over the time in pig skin by means of Franz's cells. Determination of the released amounts into the full-thickness skin was then carried out by HPLC.
One possible measure to increase the active ingredient release is the use of solubilizers. […] For the two other additives, lower values were determined, meaning that decyl oleate (Cetiol V) in particular is a preferred solubilizer in the adhesive composition. […]

CCCCCCCC/C=C\CCCCCCCC(=O)OCCCCCCCCCC [Cetiol V, decyl oleate]
Effect of added solubilizer on released amount of VBE in pig skin: significant increase in the released amount of VBE
